According to patent US6921775B2, “Methods for modulating brain damage” (Children's Medical Center Corporation, priority 2001, dated 2005):

Tests used:
P7 rat pups = experiment: Hypoxia/ischemia (unilateral carotid ligation followed by hypoxia, 6% O2 for one hour) selective white matter injury model; type: in vivo
Source text: The methods used in this example are described in Follett et al. (2000) J. Neurosci. 20:9235-9241, incorporated by reference herein.
Because the white matter of premature infants at high risk for hypoxic/ischemic white matter injury is also populated with immature OLs (Kinney and Back, 1998), this age was chosen to deliver the hypoxic/ischemic insult. […] Injury was limited to the white matter without evidence of injury to cortical neurons. […] Ipsilateral injury included the loss of MBP expression in the OL processes extending into the cortex and decreased thickness of the periventricular white matter and external capsule in four of nine rats.
P7 rat pups underwent unilateral carotid ligation followed by hypoxia (6% O2 for one hour). Following hypoxia, littermates were treated with either topiramate (30 mg/kg, i.p., q12 h, 4 doses, n=12) or vehicle (n=12). 48 hours after hypoxia/ischemia, pups were evaluated with in situ end labeling (ISEL) for the presence of cell death in white matter. Briefly, coronal sections were labeled for the presence of single-stranded DNA fragments as a sensitive indicator of cell death. ISEL positive cells in white matter ipsilateral to the ligation in each of three coronal sections (at the level of the anterior hippocampus, mid-dorsal hippocampus, and posterior dorsal hippocampus) were counted and a mean was taken for each rat.
96 hours post-ischemia/hypoxia, pups were evaluated with ICC for loss of MBP expression ipsilateral to the ligation as compared to the contralateral side. Coronal sections were evaluated by immunocytochemistry with a monoclonal against MBP, and detected with fluorescent secondary antibody. Three sections were evaluated for each rat: the anterior hippocampus, the mid-dorsal hippocampus, and the posterior dorsal hippocampus. Lesion severity was assigned a value on a scale from 0 to 3 as follows: 0 if ipsilateral and colateral hemispheres were similar; 1 if ipsilateral loss was limited to cortical processes; 2, if loss of staining included thinning of the periventricular white matter; and 3 if white matter tracts included a full thickness loss of staining in the capsule. A mean severity score was obtained for immature and mature OL markers in each rat.
Litters of male Long Evans rat pups (Charles River Laboratories, Wilmington, Mass.) were raised with dams in a temperature-controlled environment with 12 hour light-dark cycles. Pups underwent carotid ligation and hypoxia at post-natal-day (P)7. They were recovered on a thermal blanket at 33-34° C. (baseline temperature for P7 rats) and returned to their dam for 48-96 hours prior to sacrifice. Treated pups were given intra-peritoneal (i.p.) injections of 0.1 cc solutions of topiramate, NBQX or vehicle every 12 hours for 48 hours at P7 and P8 for treatment, control and normal development studies.
Hypoxic/ischemic injury was generated in rats by unilateral carotid ligation followed by hypoxia (6% for 1 hour). […] The methods used in this example are described in Follett et al (2000) J. Neurosci. 20:9235-9241, incorporated by reference herein.
Briefly, rats were anesthetized with ether and the proximal internal carotid artery was isolated from the sympathetic chain and ligated. Animals requiring prolonged sedation due to technical issues were removed from the study. The animals were recovered one hour, then placed in a sealed chamber infused with nitrogen to a level of 6% O2, with body temperature maintained at 33-34° C. throughout. […] Pups were allowed a 1-2 hour period of recovery after hypoxia then returned to their dam. Pups were randomized into treatment and control groups by weight to insure no size variation existed between the subjects and controls to start. Following hypoxia animals in the treatment group were given i.p. injections of topirmate (10, 30 or 50 mg/kg in 0.1 cc PBS) or equivalent volume of saline repeat treatment every 12 hours for 48 hours. […]

[1] = test system: oligodendrocyte precursor cells; experiment: 45Ca2+ uptake in oligodendrocyte precursor cells; type: cell-based, rat; conditions: NBQX 100 μM, topiramate 30 μM, uptake after 10 minutes; for OGD-induced Ca2+ accumulation (45Ca2+ uptake): OGD for 2 hr; for kainate-evoked Ca2+ entry (45Ca2+ uptake): kainate 300 μM
Procedure: Primary oligodendrocyte precursor cells were isolated from mixed glial cultures of the forebrains of newborn Sprague-Dawley rats using a selective detachment procedure as described in detail elsewhere (McCarthy and de Vellis, 1980; Back et al., 1998), and further purified by differential adhesion (Back et al., 1998). Precursor cells were maintained in a chemically-defined medium (CDM) supplemented with recombinant human platelet derived growth factor-AA (PDGF, 10 ng/ml) and basic fibroblast growth factor (bFGF, 10 ng/ml). The CDM was Dulbecco Modified Eagle's Medium (DMEM) containing D-glucose (25 mM), L-glutamine (4 mM), sodium pyruvate (1 mM), human apo-transferrin (50 μg/ml), bovine pancreatic insulin (5 μg/ml), sodium selenium (30 nM), hydrocortisone (10 nM), D-biotin (10 nM), and bovine serum albumin (BSA, 1 mg/ml). All chemicals were from Sigma. Precursor cells were maintained in the presence of growth factors (PDGF+bFGF) by refeeding with fresh medium every 48 hr for 7 days, to promote cell proliferation and prevent differentiation (Bogler et al., 1990). Experiments were performed with cultures maintained in CDM without the supplemental growth factors. These cultures were routinely characterized by immunochemical detection of cell-specific markers as described before (Back et al., 1998). Cultures at the beginning of experiments usually consisted of approximately 90% A2B5^+ oligodendrocyte precursors and less than 5% glial fibrillary acidic protein (GFAP)-positive astrocytes. Cells were plated on poly-DL-ornithine-coated 24-well plates for cell viability assays and on coated glass coverslips for immunocytochemistry, proliferation studies, and lineage analysis. To assay Ca^2+ influx, cultures were incubated with ^45CaCl2 (8 μCi/ml) at room temperature for 10 min, then washed with Hank's balanced salts-solution (HBSS) and lysed with 1% Triton-X 100 in HBSS. Radioactivity in the whole lysate was counted by liquid scintillation. To gain further insight into the mechanisms of the protective effect of topiramate and NBQX, kainate- or OGD-evoked calcium accumulation in oligodendrocyte precursor cells was investigated. Cultures were either not treated or given NBQX (100 μM) or topiramate (30 μM), together with ^45CaCl2 (8 μCi/ml), before adding kainate (300 μM) or after exposure to OGD for 2 hr. ^45Ca^2+ uptake was measured after 10 minutes.

[2] = P7 rats, topiramate 30 mg/kg i.p. q12 h 4 doses, 96 hours

Compound	protective effect at the lower dose (MBP injury) (P7 rat pups; Example 3, 10 mg/kg per dose (40 mg/kg divided over 48 hours))	lesion severity, blinded semi-quantitative analysis of MBP expression (P7 rat pups; Example 3, 30 mg/kg topiramate every 12 hours for 48 hours, 96 hours after hypoxia, vs vehicle p<0.01)	effect at the higher dose (MBP injury) (P7 rat pups; Example 3, 50 mg/kg per dose (200 mg/kg divided over 48 hours))	body temperature by rectal probe, treatment vs control groups (P7 rat pups; Example 3, P7 rats, monitored at each stage)	dose with maximal protective effect (MBP injury) (P7 rat pups; Example 3, partial dose response 10, 30, 50 mg/kg every 12 hours for 48 hours) [mg/kg/dose]	pups with less than 20 ISEL positive cells per section in subcortical white matter ipsilateral to the ligation (P7 rat pups; P7 rats, topiramate 30 mg/kg i.p. q12 h 4 doses, 48 hours after hypoxia/ischemia)	white matter cell death (ISEL positive cells) (P7 rat pups; P7 rats, topiramate 30 mg/kg i.p. q12 h 4 doses, 48 hours after hypoxia/ischemia, p<0.03)	pups with no appreciable loss of MBP expression ipsilateral to the carotid ligation (P7 rat pups; [2])	pups with severe injury (MBP loss) (P7 rat pups; [2])	loss of MBP expression ipsilateral to the ligation (P7 rat pups; P7 rats, topiramate 30 mg/kg i.p. q12 h 4 doses, 96 hours post-ischemia/hypoxia, p=0.04)	OGD-induced Ca2+ accumulation (45Ca2+ uptake) [1]	kainate-evoked Ca2+ entry (45Ca2+ uptake) [1]	white matter injury, semiquantitative lesion severity by MBP expression (P7 rat pups; P7 rats, NBQX post-treatment at termination of hypoxia, 96 hours after insult, vs vehicle-treated controls, p<0.001)	white matter injury, semiquantitative lesion severity by O1 expression (P7 rat pups; P7 rats, NBQX post-treatment at termination of hypoxia, 96 hours after insult, vs vehicle-treated controls, p<0.005)	treated pups with no detectable injury (P7 rat pups; P7 rats, NBQX post-treatment, 96 hours after insult)	rectal temperature, treated vs untreated groups (P7 rat pups; P7 rats, NBQX treatment initiated after hypoxia)
CC1(C)O[C@@H]2[C@@H](CO[C@@]3(COS(N)(=O)=O)OC(C)(C)O[C@@H]23)O1 [topiramate]	less efficacy	significant attenuation of lesion severity	question of possible toxicity	did not differ between treatment and control groups	30	Five out of six	significant decreases in white matter cell death	two out of five	None of the topiramate treated pups exhibited severe injury	significant attenuation of MBP loss	fully prevented	partially prevented				
NS(=O)(=O)c1cccc2c1c([N+](=O)[O-])cc1nc(O)c(O)nc12 [NBQX, 2,3-Dioxo-6-nitro-1,2,3,4-tetrahydrobenzo[f]quinoxaline-7-sulphonamide]											fully prevented	completely blocked	significant attenuation of white matter injury	significant attenuation of white matter injury	three of seven	No difference in rectal temperatures
